Legend:
HIV virus = assay: Test A (XTT), MT4 cells infected with HIV; type: cell-based; conditions: for inhibition at 0.1 µg/mL / inhibition at 10 µg/mL / inhibition at 100 µg/mL / inhibition at 1 µg/mL: Human immunodeficiency virus 1, MT4, Test A; for % inhibition: Test A
Procedure: (§1) Tests A, B, C, and D (XTT)
(§2) MT4 cells in a medium of RPMI 1640, 5% FCS, penicillin/streptomycin are adjusted to 2x10^5 cells/ml and seeded into microplates (96 wells/plate) 100 µl cell suspension/well giving 2x10^4 cells/well. The compound to be tested is made into a 10 mg/ml mixture in DMSO and stored at -20°C. The compound in DMSO is diluted with medium containing 10% DMSO in a 10-fold dilution series to give 1 mg/ml, 10 mg/ml, and […] solutions. Further dilutions to 400, 40, 4 and 0.4 mg/ml are made in medium containing microplates. Fifty µl of the 400, 40, and 4 mg/ml are transferred to the cell-containing microplates with a multi-channel pipette (final concentration: 100, 10, and 1 mg/ml). Finally, 50 µl of virus suspension is added to each well (with a repetitive "Eppendorf" multipipett). Each plate has at least six wells with the following: [Test A: HIV virus; Test B: HIV(II) virus; Test C: SIV virus; Test D: No virus]; with no drug (virus control) and six wells without virus (medium control). The plate is put into a plastic bag and incubated for six days in CO2 atmosphere. To each well in the plate is added 50 µl of XTT ((2,3-bis[2-methoxy-4-nitro-5-sulfophenyl]-5-[(phenylamino)carbonyl]-2H-tetrazolium hydroxide), (1 mg/ml 0.01-0.02 mM N-metyl-phenazonium methosulfate). After six hours of incubation in CO2 atmosphere the plates are covered with adhesive plate sealers and gently mixed on a vortex. Optical densities are determined at a wavelength of 450 nm and a reference wavelength of 650 nm. The percent reduction of cytotoxocity caused by the virus infection is calculated as follows: (OD450 compound - OD450 inf cells)/(OD450 uninf cells - OD450 inf cells)x 100 [formula]

HIV(II) virus = assay: Test B (XTT), MT4 cells infected with HIV(II); type: cell-based; conditions: Human immunodeficiency virus 1, MT4, Test B
Procedure: as §1, §2

SIV virus = assay: Test C (XTT), MT4 cells infected with SIV; type: cell-based; conditions: Simian immunodeficiency virus, MT4, Test C
Procedure: as §1, §2

MT4 cells = assay: Test D (XTT), MT4 cells, no virus; type: cell-based; conditions: Homo sapiens
Procedure: as §1, §2

HIV-1 = assay: Test E (HIV-1 RT), RT activity in supernatant of infected MT-4/H9 cells; type: cell-based; conditions: Human immunodeficiency virus 1, H9, Test E
Procedure: (§3) Tests E, F, G, H (HIV-IRT, HIV-2RT, SIVRT, no virus)
(§4) MT-4/H9-cells are adjusted to 2x10^5 cells/ml medium (RPMI 1640, 5% FCS, penicillin/streptomycin) and seeded into microplates (96 wells/plate) […] cell suspension/well giving 2 x 10^4 cells/well. The compound to be tested is made 10 mg/ml in DMSO = stock solution (stored at -20°C). The compound dissolved in DMSO is diluted 25 times in medium to give 400 mg/ml. Further dilutions to 40 mg/ml and 4 mg/ml are made in microplates.
(§5) 50 µl of the dilutions 400 mg/ml, 40 mg/ml and 4mg/ml are transferred to the "cell-containing" microplate with a multichannel pipette. […]
(§6) Finally 50 µl of virus suspension is added to each well (with a repetitive "Eppendorf multipett"). [Test E-HIV-1; Test F-HIV-2; Test G-SIV; Test H-no virus].
(§7) Each plate has at least four wells with virus but no drug (virus control) and two wells without virus (medium control). The plate is put into a plastic bag to avoid evaporation and incubated for six days in CO2-atmosphere. 10 µl supernatant from each well is transferred with a multichannel pipette into a new microplate to which 40 ml VDB, (50 mM Tris-HCl pH = 7.6, 35 mM KCl, 4 mM DTT, 1 mM EDTA, 1.3% Triton X-100), have been added to each well. The addition of 50 ml RT-reaction mix, (10 ml culture supernatant, 40 ml VDB and 50 ml reaction mixture giving a final concentration of: 100 mM Tris-HCl pH = 7.6, 100 mM KCl, 4 mM MgCl2, 4 mM DTT, 275 mg/ml BSA/ml, 5 mg (rA)n(dT)12-18/ml and 0.3 mM ^3H dTTP (specific activity 18.000 cpm/pmol)) gives a final volume of […]/well. After 60 minutes of incubation the whole assay volume is transferred by use of a cell harvester to a filter mat prewetted with 5% TCA. The filter is washed in 5% TCA and rinsed once in ethanol. After drying the filter mat at 60°C for 30 min. each filter (96/mat) is punched out and put into counting vials 2 ml of scintillation fluid is added and the samples are counted (1 min) or the whole filter mat is put into a plastic bag, 10 ml of scintillation fluid is added and the filter mat is counted in a Beckman Betaplate counter. Percent reduction of RT activity is determined by comparing RT activity for virus control with the RT activity measured for each dilution of the compound.

HIV-2 = assay: Test F (HIV-2 RT), RT activity in supernatant of infected MT-4/H9 cells; type: cell-based; conditions: Human immunodeficiency virus 2, H9, Test F
Procedure: as §3, §4, §5, §6, §7

recombinant HIV-RT = recombinant HIV-RT (Human immunodeficiency virus type 1 group M subtype B, UniProt P04585); assay: Test I (HIVRT (rAdt)), direct inhibition of recombinant HIV-RT; type: biochemical
Procedure: The compounds were tested for direct inhibitory activity on HIV-RT in a volume of […] recombinant HIV-RT (diluted in virus disruption buffer to give 200.000 cpm).
100 mM Tris-HCl pH 7.6, 100 mM KCl, 4 mM MgCl2, 4 mM DTT, 275 mg/ml BSA, 0.5 mg (rA)n(dT)12-18 and 0.3 mM ^3H- dTTP (specific activity […]). After 60 minutess of incubation 40 ml in duplicate were spotted on paper discs and washed in 5% TCA. After rinsing the paper discs in ethanol they were dried and counted in scintillation fluid.

Row | SMILES | inhibition at 0.1 µg/mL (HIV virus) [%] | inhibition at 10 µg/mL (HIV virus; 10 µg/ml) [%] | inhibition at 0.1 µg/mL (HIV(II) virus) [%] | inhibition at 1 µg/mL (HIV(II) virus) [%] | inhibition at 10 µg/mL (HIV(II) virus) [%] | inhibition at 100 µg/mL (HIV(II) virus) [%] | inhibition at 1 µg/mL (SIV virus) [%] | inhibition at 10 µg/mL (SIV virus) [%] | inhibition at 100 µg/mL (SIV virus) [%] | inhibition at 10 µg/mL (MT4 cells) [%] | inhibition at 100 µg/mL (MT4 cells) [%] | inhibition at 0.1 µg/mL (HIV-1) [%] | inhibition at 1 µg/mL (HIV-1) [%] | inhibition at 10 µg/mL (HIV-1) [%] | inhibition at 100 µg/mL (HIV-1) [%] | inhibition at 0.1 µg/mL (HIV-2) [%] | inhibition at 1 µg/mL (HIV-2) [%] | inhibition at 10 µg/mL (HIV-2) [%] | inhibition at 100 µg/mL (HIV-2) [%] | inhibition at 0.1 µg/mL (recombinant HIV-RT; 0.1 µg/ml) [%] | also measured
1 | Cc1nc(NC(=S)NCCc2ccccc2)sc1C | 7 | 85 | 13 | 100 | 100 | 85 | 0 | 1 | 0 | 0 | 0 | 1 | 23 | 91 | 94 | 1 | 92 | 61 | 93 | 34 | inhibition at 100 µg/mL (HIV virus; 100 µg/ml): 99%; % inhibition (HIV virus; 10 µg/ml): 88%; % inhibition (HIV virus; 100 µg/ml): 100%; inhibition at 1 µg/mL (recombinant HIV-RT; 1 µg/ml): 39%; inhibition at 10 µg/mL (recombinant HIV-RT; 10 µg/ml): 38%
2 | S=C(NCCc1ccccc1)Nc1nc2ccccc2s1 | 0 | 100 | 17 | 99 | 100 | 50 | 0 | 1 | 8 | 27 | 23 | 1 | 77 | 96 | 95 | 1 | 87 | 84 | 96 | 39 | inhibition at 1 µg/mL (HIV virus; 1 µg/ml): 63%; % inhibition (HIV virus; 1 µg/ml): 53%; % inhibition (HIV virus; 10 µg/ml): 99%; inhibition at 1 µg/mL (MT4 cells): 32%; inhibition at 1 µg/mL (recombinant HIV-RT; 1 µg/ml): 36%; inhibition at 10 µg/mL (recombinant HIV-RT; 10 µg/ml): 40%
3 | N#Cc1csc(NC(=S)NCCc2ccccc2)n1 | 84 | 0 | 74 | 90 | 0 | 0 | 5 | 2 | 0 | 70 | 93 | 99 | 98 | 98 | 98 | 67 | 91 | 94 | 96 | 72 | inhibition at 1 µg/mL (HIV virus; 1 µg/ml): 51%; inhibition at 100 µg/mL (HIV virus; 100 µg/ml): 0%; % inhibition (HIV virus; 1 µg/ml): 63%; inhibition at 0.1 µg/mL (SIV virus; 0.1 µg/ml): 11%; inhibition at 0.1 µg/mL (MT4 cells; 0.1 µg/ml): 0%; inhibition at 1 µg/mL (MT4 cells): 53%; % inhibition (recombinant HIV-RT; 0.1 µg/ml): 73%; % inhibition (recombinant HIV-RT; 1 µg/ml): 95%; inhibition at 1 µg/mL (recombinant HIV-RT; 1 µg/ml): 93%; % inhibition (recombinant HIV-RT; 10 µg/ml): 95%; inhibition at 10 µg/mL (recombinant HIV-RT; 10 µg/ml): 94%

Source: EP0540143B1, “Compounds and methods for inhibition of HIV and related viruses” (priority 1991, dated 1993)
